Results: patent US20150315211A1, “SMALL MOLECULES FOR THE MODULATION OF MCL-1 AND METHODS OF MODULATING CELL DEATH, CELL DIVISION, CELL DIFFERENTIATION AND METHODS OF TREATING DISORDERS” (priority 2010, published 2015)

Tested on: MCL-1ΔNΔC
Assay: High-throughput competitive FP binding screen, FITC-MCL-1 SAHB/MCL-1ΔNΔC interaction
Details: not given

Row | SMILES | Spec Values
1 | Cc1cc2c(C(C)C)c(O)c(O)c(C=O)c2c(O)c1-c1c(C)cc2c(C(C)C)c(O)c(O)c(C=O)c2c1O.[Na+].[Na+] | 97.07
2 | C=CCN1C(=O)/C(=C\c2ccc(OC)cc2)C(=O)NC1=S | 76
3 | CCN1C(=O)C(=Cc2ccc(O)c(I)c2)C(=O)N(CC)C1=S | 61.04
4 | C=CCN1C(=O)/C(=C\c2ccc(N(CC)CC)cc2)C(=O)NC1=S | 60.35
5 | Cc1sc(-n2c(C)cc(C=C3C(=O)NC(=S)NC3=O)c2C)c(C#N)c1C | 56.82
6 | CCOc1cc(C=C2C(=O)N(C)C(=S)N(C)C2=O)ccc1OC(C)C(=O)O (stereo not shown) | 56.22
7 | CCN1C(=O)C(=Cc2cccn2C)C(=O)N(CC)C1=S | 53.66
8 | CSc1ncc(/C=C2/C(=O)NC(=O)N(C3CCCCC3)C2=O)cn1 | 52.58
9 | O=C1NC(=O)C(=Cc2ccc(Sc3ccc(Cl)cc3)o2)C(=O)N1 | 52.25
10 | O=C1NC(=O)N(CCc2ccc(F)cc2)C(=O)/C1=C\c1ccc(O)c(O)c1 | 50.75
11 | C=CCN1C(=O)/C(=C\c2ccc(N3CCOCC3)cc2C)C(=O)NC1=S | 49.65
12 | Cc1ccccc1C=C1C(=O)N(C)C(=S)N(C)C1=O | 48.03
13 | CCc1ccc(C=C2C(=O)N(C)C(=S)N(C)C2=O)cc1 | 45.4
14 | O=C(O)C(Cc1ccccc1)N1C(=O)/C(=C/C=C/c2ccco2)SC1=S (stereo not shown) | 97.44
15 | Nc1c(C(=O)NCc2ccco2)c2nc3ccccc3nc2n1CCc1ccccc1F | 93.2
16 | CC1=C(CC/C(C)=C/CCC2C=CC(C3=CC(=O)OC3O)OC2O)C(C)(C)CCC1 (stereo not shown) [drawing 17] | 71.82
17 | CC1=C(CC/C(C)=C/CCC2C=CC(C3=CC(=O)OC3O)OC2O)C(C)(C)CCC1 (stereo not shown) [drawing 207] | 71.82

Same assay, conditions: selectivity for MCL-1ΔNΔC over BCL-XLΔC targeting (BCL-XL % Bound minus MCL-1 % Bound)

Row | SMILES | Spec Values
18 | O=C(/C=C/c1ccco1)Nc1ccc(Br)cc1 | 48.95
19 | Cc1cc(NC(=O)/C=C/c2ccco2)n(-c2nc3ccccc3n2Cc2cccc(Oc3ccccc3)c2)n1 | 48.1
20 | Cc1ccc(/C=C/C(=O)N2CCN(C(c3ccccc3)c3ccccc3)CC2)o1 | 48.08
21 | O=C(/C=C/c1ccco1)Nc1ccc2ccccc2c1 | 48.07
22 | Cc1ccc(/C=C2\C(=O)N(c3ccccc3)c3ccccc32)o1 | 47.36
23 | O=c1oc2c(O)c(O)cc3c(=O)oc4c(O)c(O)cc1c4c23 [drawing 165] | 89.32

Target: MCL-1ΔNΔC (Homo sapiens, UniProt Q07820)
Assay: as above
Parameters: the C-terminal alpha-helix was deleted from each of these constructs; GST (N, cleaved yes); made in house
Details: not given

Sequence of MCL-1ΔNΔC (Homo sapiens, UniProt Q07820) (Q07820 172-320 limits assumed, stated change not applied): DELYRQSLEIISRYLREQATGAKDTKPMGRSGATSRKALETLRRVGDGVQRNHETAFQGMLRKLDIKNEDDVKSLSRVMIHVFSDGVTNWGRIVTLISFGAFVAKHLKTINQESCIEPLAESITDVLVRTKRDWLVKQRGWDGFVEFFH

Row | SMILES | MCL-1% Bound [%]
24 | Cc1cc2c(C(C)C)c(O)c(O)c(C=O)c2c(O)c1-c1c(C)cc2c(C(C)C)c(O)c(O)c(C=O)c2c1O.[Na+].[Na+] | 3.955
25 | C=CCN1C(=O)/C(=C\c2ccc(OC)cc2)C(=O)NC1=S | 19.08
26 | CCN1C(=O)C(=Cc2ccc(O)c(I)c2)C(=O)N(CC)C1=S | 39.32
27 | C=CCN1C(=O)/C(=C\c2ccc(N(CC)CC)cc2)C(=O)NC1=S | 41.82
28 | Cc1sc(-n2c(C)cc(C=C3C(=O)NC(=S)NC3=O)c2C)c(C#N)c1C | 45.2
29 | CCOc1cc(C=C2C(=O)N(C)C(=S)N(C)C2=O)ccc1OC(C)C(=O)O (stereo not shown) | 41.99
30 | CCN1C(=O)C(=Cc2cccn2C)C(=O)N(CC)C1=S | 52.01
31 | CSc1ncc(/C=C2/C(=O)NC(=O)N(C3CCCCC3)C2=O)cn1 | 46.42
32 | O=C1NC(=O)C(=Cc2ccc(Sc3ccc(Cl)cc3)o2)C(=O)N1 | 39.96
33 | O=C1NC(=O)N(CCc2ccc(F)cc2)C(=O)/C1=C\c1ccc(O)c(O)c1 | 30.59
34 | C=CCN1C(=O)/C(=C\c2ccc(N3CCOCC3)cc2C)C(=O)NC1=S | 33.01
35 | Cc1ccccc1C=C1C(=O)N(C)C(=S)N(C)C1=O | 51.19
36 | CCc1ccc(C=C2C(=O)N(C)C(=S)N(C)C2=O)cc1 | 55.45
37 | O=C(O)C(Cc1ccccc1)N1C(=O)/C(=C/C=C/c2ccco2)SC1=S (stereo not shown) | −9.611
38 | Nc1c(C(=O)NCc2ccco2)c2nc3ccccc3nc2n1CCc1ccccc1F | 6.6

Same assay, conditions: FITC-MCL-1 SAHB/MCL-1ΔNΔC interaction pair, competitive FP screen

Row | SMILES | MCL-1% Bound [%]
39 | O=C(/C=C/c1ccco1)Nc1ccc(Br)cc1 | 47.95
40 | Cc1cc(NC(=O)/C=C/c2ccco2)n(-c2nc3ccccc3n2Cc2cccc(Oc3ccccc3)c2)n1 | 56.33
41 | Cc1ccc(/C=C/C(=O)N2CCN(C(c3ccccc3)c3ccccc3)CC2)o1 | 55.15
42 | O=C(/C=C/c1ccco1)Nc1ccc2ccccc2c1 | 64.64
43 | Cc1ccc(/C=C2\C(=O)N(c3ccccc3)c3ccccc32)o1 | 62.72
44 | O=c1c(O)c(-c2ccc(O)c(O)c2)oc2cc(O)cc(O)c12 [drawing 15] | 16.69
45 | CCOc1cc(C(Nc2cccnc2)c2ccc3cccnc3c2O)ccc1O (stereo not shown) [drawing 35] | −0.3
46 | O=c1oc2c(O)c(O)cc3c(=O)oc4c(O)c(O)cc1c4c23 [drawing 165] | 1.26

Target: BCL-XLΔC (Homo sapiens, UniProt Q07817)
Assay: High-throughput competitive FP binding screen, FITC-BAD BH3/BCL-XLΔC interaction
Details: not given

Sequence of BCL-XLΔC (Q07817 1-212 limits assumed, stated change not applied): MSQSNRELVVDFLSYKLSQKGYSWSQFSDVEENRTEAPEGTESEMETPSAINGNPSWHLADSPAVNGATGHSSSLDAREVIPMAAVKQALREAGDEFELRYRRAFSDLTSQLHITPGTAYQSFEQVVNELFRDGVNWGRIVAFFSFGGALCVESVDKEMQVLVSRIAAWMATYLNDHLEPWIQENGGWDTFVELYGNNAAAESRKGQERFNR

Row | SMILES | BCL-XL % Bound [%]
47 | Cc1cc2c(C(C)C)c(O)c(O)c(C=O)c2c(O)c1-c1c(C)cc2c(C(C)C)c(O)c(O)c(C=O)c2c1O.[Na+].[Na+] | 101
48 | C=CCN1C(=O)/C(=C\c2ccc(OC)cc2)C(=O)NC1=S | 95.09
49 | CCN1C(=O)C(=Cc2ccc(O)c(I)c2)C(=O)N(CC)C1=S | 100.4
50 | C=CCN1C(=O)/C(=C\c2ccc(N(CC)CC)cc2)C(=O)NC1=S | 102.2
51 | Cc1sc(-n2c(C)cc(C=C3C(=O)NC(=S)NC3=O)c2C)c(C#N)c1C | 102
52 | CCOc1cc(C=C2C(=O)N(C)C(=S)N(C)C2=O)ccc1OC(C)C(=O)O (stereo not shown) | 98.2
53 | CCN1C(=O)C(=Cc2cccn2C)C(=O)N(CC)C1=S | 105.7
54 | CSc1ncc(/C=C2/C(=O)NC(=O)N(C3CCCCC3)C2=O)cn1 | 99
55 | O=C1NC(=O)C(=Cc2ccc(Sc3ccc(Cl)cc3)o2)C(=O)N1 | 92.22
56 | O=C1NC(=O)N(CCc2ccc(F)cc2)C(=O)/C1=C\c1ccc(O)c(O)c1 | 81.34
57 | C=CCN1C(=O)/C(=C\c2ccc(N3CCOCC3)cc2C)C(=O)NC1=S | 82.66
58 | Cc1ccccc1C=C1C(=O)N(C)C(=S)N(C)C1=O | 99.22
59 | CCc1ccc(C=C2C(=O)N(C)C(=S)N(C)C2=O)cc1 | 100.9
60 | O=C(O)C(Cc1ccccc1)N1C(=O)/C(=C/C=C/c2ccco2)SC1=S (stereo not shown) | 87.83
61 | Nc1c(C(=O)NCc2ccco2)c2nc3ccccc3nc2n1CCc1ccccc1F | 99.9

Same assay, conditions: FITC-BAD BH3/BCL-XLΔC interaction pair, competitive FP screen

Row | SMILES | BCL-XL % Bound [%]
62 | O=C(/C=C/c1ccco1)Nc1ccc(Br)cc1 | 96.9
63 | Cc1cc(NC(=O)/C=C/c2ccco2)n(-c2nc3ccccc3n2Cc2cccc(Oc3ccccc3)c2)n1 | 104.4
64 | Cc1ccc(/C=C/C(=O)N2CCN(C(c3ccccc3)c3ccccc3)CC2)o1 | 103.2
65 | O=C(/C=C/c1ccco1)Nc1ccc2ccccc2c1 | 112.7
66 | Cc1ccc(/C=C2\C(=O)N(c3ccccc3)c3ccccc32)o1 | 110.1
67 | O=c1c(O)c(-c2ccc(O)c(O)c2)oc2cc(O)cc(O)c12 [drawing 15] | 105.3
